Patent EP4706655A1, “PREVENTIVE OR THERAPEUTIC AGENT FOR NEURODEGENERATIVE DISEASE” (Medilabo RFP, Inc., priority 2023, dated 2024)

Tests used:
[1] = tested on: FTD/ALS model mice; assay: Morris water maze test (Test Example 2); type: in vivo; conditions: 7- to 8-month-old mice; nasal, single agent 0.04 mg/day, 1 month
Text: FVB/NJ-Tg(C9orf72)500Lpwr/J mice (FTD/ALS model mice) were purchased from The Jackson Laboratory (Bar Harbor, ME, USA). The mouse strain was generated as a model for the C9orf72-associated FTD/ALS expressing the human C9orf72 gene with about 500 hexanucleotide ([…]) repeats using a bacterial artificial chromosome (BAC) vector. Transgenic (Tg) mice were crossed with wild-type FVB/NJc1 mice, and the transgene was maintained as a heterozygote at our animal facility. […] Louis, MO) and trans-resveratrol (Sigma-Aldrich) were dissolved in 0.5% low-viscosity CMC (Sigma-Aldrich) at 4 mg/mL. […] Age-matched non-Tg […] mates received only CMC. After administration for one month, the cognitive function of the mice was assessed in the Morris water maze test as described above.

[2] = tested on: FTD/ALS model mice; assay: Immunohistochemical analysis of brain sections (Test Example 2); type: in vivo; conditions: nasal, single agent 0.04 mg/day, 1 month
Text: FVB/NJ-Tg(C9orf72)500Lpwr/J mice (FTD/ALS model mice) were purchased from The Jackson Laboratory (Bar Harbor, ME, USA). The mouse strain was generated as a model for the C9orf72-associated FTD/ALS expressing the human C9orf72 gene with about 500 hexanucleotide (GGGGCC) repeats using a bacterial artificial chromosome (BAC) vector. Transgenic (Tg) mice were crossed with wild-type FVB/NJc1 mice, and the transgene was maintained as a heterozygote at our animal facility.
(§1) Age-matched non-Tg rat mates received only CMC.
(§2) After the behavioral test, each group was divided into two groups: one for immunohistochemical analysis and the other for future biochemical analysis. Immunohistochemical staining was performed as described above. For staining of double-stranded RNA-dependent protein kinase (PKR), phosphorylated TDP-43, synaptophysin, sections were boiled in 10 mM citrate buffer solution (pH6) for 30 min to expose the antigens. The sections were blocked overnight with 10% calf serum, and then the resultant sections were stained with antibodies for DNA/RNA G-quadruplex (BG4; Absolute antibody, Cleveland, UK), phospho-PKR (Thr446) (MilliporeSigma, Burlington, MA, USA), poly-GA, poly-GP (Cosmo Bio Co., Ltd., Tokyo, Japan), pSer409/410-TDP-43 (Cosmo Bio Co., Ltd.), and synaptophysin (SVP-38; Sigma-Aldrich, St. Luis, MO, USA). Only synaptophysin was stained with a biotin-labeled secondary antibody (Vector Laboratories, Burlingame, CA, USA), a horseradish peroxidase (HRP) -labeled avidin-biotin complex (Vector Laboratories), HRP substrate, diaminobenzidine (DAB), or an FITC-labeled secondary antibody (The Jackson Laboratory). […] Neuropathologies were evaluated by measuring the staining intensity or area or by counting positive puncta or cells in a constant area in each photograph using NIH ImageJ software.

[3] = tested on: PKR; assay: Immunohistochemical analysis of phospho-PKR (Thr446) (Test Example 2); type: in vivo, mice; conditions: prefrontal cortex; nasal, single agent 0.04 mg/day, 1 month
Method: as §1, §2

[4] = tested on: BDNF; assay: Expression of BDNF in the mouse brains; type: in vivo; conditions: stated in the discussion only; no method, dose or data given

Oc1ccc(/C=C/c2cc(O)cc(O)c2)cc1 [resveratrol, 3,5,4'-trihydroxy-trans-stilbene]
cognitive function of FTD/ALS model mice [1]: significantly improved | relative strength of the reduction of prefrontal cortex pathologies (G-quadruplex, phosphorylated PKR, poly-GA, poly-GP, phosphorylated TDP-43) ([2]; comparison among treatment groups): strongest effect | synaptic loss (synaptophysin levels) in the DG ([2]; dentate gyrus): significantly restored synaptic loss | synaptic loss (synaptophysin levels) in the CA2-3 region ([2]; hippocampus): significantly restored synaptic loss | levels of G-quadruplex ([2]; prefrontal cortex): significantly reduced | levels of phosphorylated TDP-43 ([2]; prefrontal cortex): significantly reduced | levels of poly-GA ([2]; prefrontal cortex): significantly reduced | levels of poly-GP ([2]; prefrontal cortex): significantly reduced | levels of phosphorylated PKR [3]: significantly reduced | expression of BDNF in the mouse brains [4]: elicited
